Measurements: the supplement of paper PMC10627819

Experiments:
Experiment in all cases: Bliss interaction score (quartile over a dose matrix) (fitness difference); higher = more antagonism (negative = synergy)
S. pneumoniae D39V = system: S. pneumoniae D39V
Summary of the method: (§1)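 Fitness here means normalised growth, inferred for single drugs from the combination data. Growth was OD595 at entry into stationary phase, divided by the plate's robust no-drug mean and capped at 1. The Bliss score is observed minus expected fitness, with the expectation being the product, and its quartiles span technical, biological and donor/recipient replicates.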

B. subtilis 168 = system: B. subtilis 168
Summary of the method: as §1

S. aureus Newman = system: S. aureus Newman
Summary of the method: as §1

S. aureus DSM 20231 = system: S. aureus DSM 20231
Summary of the method: as §1
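Note: first quartile when negative (synergy) and third quartile when positive (antagonism).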

| Structure (SMILES) | Bliss interaction score (S. pneumoniae D39V) | Bliss interaction score (B. subtilis 168) | Bliss interaction score (S. aureus Newman) | Bliss interaction score (S. aureus DSM 20231) |
| --- | --- | --- | --- | --- |
| Cc1onc(-c2ccccc2)c1C(=O)N[C@@H]1C(=O)N2[C@@H]1SC(C)(C)[C@@H]2C(=O)O [Oxacillin] + CC1(C)S[C@@H]2[C@H](NC(=O)Cc3ccccc3)C(=O)N2[C@H]1C(=O)O [PenicillinG] | -0.235 | -0.0214 | -0.0558 | 0.0796 |
| Cc1onc(-c2ccccc2)c1C(=O)N[C@@H]1C(=O)N2[C@@H]1SC(C)(C)[C@@H]2C(=O)O [Oxacillin] + CC[C@H]1OC(=O)[C@H](C)C(=O)[C@H](C)[C@@H](O[C@@H]2O[C@H](C)C[C@H](N(C)C)[C@H]2O)[C@](C)(OC)C[C@@H](C)C(=O)[C@H](C)[C@H]2N(CCCCn3cnc(-c4cccnc4)c3)C(=O)O[C@]12C [Telithromycin] | 0.112 | -0.0301 | 0.0304 | 0.0397 |
| Cc1onc(-c2ccccc2)c1C(=O)N[C@@H]1C(=O)N2[C@@H]1SC(C)(C)[C@@H]2C(=O)O [Oxacillin] + Oc1cc(Cl)ccc1Oc1ccc(Cl)cc1Cl [Triclosan] | 0.0852 | 0.025 | 0.0273 | 0.0454 |
| C[n+]1ccc(-c2cc[n+](C)cc2)cc1 [Paraquat] + C/C(=C\C(=O)OCCCCCCCCC(=O)O)C[C@@H]1OC[C@H](C[C@@H]2O[C@H]2[C@@H](C)[C@H](C)O)[C@@H](O)[C@H]1O [Pseudomonic acid] | -0.0863 | 0.0715 | 0.0152 | 0.0093 |
| C[n+]1ccc(-c2cc[n+](C)cc2)cc1 [Paraquat] + CC1(C)S[C@@H]2[C@H](NC(=O)Cc3ccccc3)C(=O)N2[C@H]1C(=O)O [PenicillinG] | -0.0591 | -0.0267 | 0.0437 | -0.0239 |
| C[n+]1ccc(-c2cc[n+](C)cc2)cc1 [Paraquat] + CC[C@H]1OC(=O)[C@H](C)C(=O)[C@H](C)[C@@H](O[C@@H]2O[C@H](C)C[C@H](N(C)C)[C@H]2O)[C@](C)(OC)C[C@@H](C)C(=O)[C@H](C)[C@H]2N(CCCCn3cnc(-c4cccnc4)c3)C(=O)O[C@]12C [Telithromycin] | 0.0949 | -0.0235 | -0.0252 | 0.0414 |
| C[n+]1ccc(-c2cc[n+](C)cc2)cc1 [Paraquat] + Oc1cc(Cl)ccc1Oc1ccc(Cl)cc1Cl [Triclosan] | 0.058 | -0.188 | -0.0576 | 0.0434 |
| Cn1c2cccc(=O)c-2nc2ccccc21 [Pyocyanin] + CC[C@H]1OC(=O)[C@H](C)C(=O)[C@H](C)[C@@H](O[C@@H]2O[C@H](C)C[C@H](N(C)C)[C@H]2O)[C@](C)(OC)C[C@@H](C)C(=O)[C@H](C)[C@H]2N(CCCCn3cnc(-c4cccnc4)c3)C(=O)O[C@]12C [Telithromycin] | -0.0564 | -0.0145 | -0.0591 | 0.0313 |
| Cn1c2cccc(=O)c-2nc2ccccc21 [Pyocyanin] + Oc1cc(Cl)ccc1Oc1ccc(Cl)cc1Cl [Triclosan] | -0.0544 | -0.0279 | 0.0494 | 0.037 |
| CN(N=O)C(=O)N[C@@H](C=O)[C@@H](O)[C@H](O)[C@H](O)CO [Streptozotocin] + CC[C@H]1OC(=O)[C@H](C)C(=O)[C@H](C)[C@@H](O[C@@H]2O[C@H](C)C[C@H](N(C)C)[C@H]2O)[C@](C)(OC)C[C@@H](C)C(=O)[C@H](C)[C@H]2N(CCCCn3cnc(-c4cccnc4)c3)C(=O)O[C@]12C [Telithromycin] | 0.0699 | 0.0498 | -0.0223 | 0.0346 |
| CN(N=O)C(=O)N[C@@H](C=O)[C@@H](O)[C@H](O)[C@H](O)CO [Streptozotocin] + Cc1cc(NS(=O)(=O)c2ccc(N)cc2)no1 [Sulfamethoxazol] | -0.0217 | -0.0496 | 0.0639 | -0.0487 |
| CN(N=O)C(=O)N[C@@H](C=O)[C@@H](O)[C@H](O)[C@H](O)CO [Streptozotocin] + Oc1cc(Cl)ccc1Oc1ccc(Cl)cc1Cl [Triclosan] | -0.0506 | 0.095 | -0.0226 | 0.0542 |
| Cc1cc(NS(=O)(=O)c2ccc(N)cc2)no1 [Sulfamethoxazol] + CC[C@H]1OC(=O)[C@H](C)C(=O)[C@H](C)[C@@H](O[C@@H]2O[C@H](C)C[C@H](N(C)C)[C@H]2O)[C@](C)(OC)C[C@@H](C)C(=O)[C@H](C)[C@H]2N(CCCCn3cnc(-c4cccnc4)c3)C(=O)O[C@]12C [Telithromycin] | -0.0611 | -0.0301 | 0.0359 | 0.034 |
| Cc1cc(NS(=O)(=O)c2ccc(N)cc2)no1 [Sulfamethoxazol] + Oc1cc(Cl)ccc1Oc1ccc(Cl)cc1Cl [Triclosan] | -0.0608 | 0.0965 | 0.0302 | 0.0924 |
| CC[C@H]1OC(=O)[C@H](C)C(=O)[C@H](C)[C@@H](O[C@@H]2O[C@H](C)C[C@H](N(C)C)[C@H]2O)[C@](C)(OC)C[C@@H](C)C(=O)[C@H](C)[C@H]2N(CCCCn3cnc(-c4cccnc4)c3)C(=O)O[C@]12C [Telithromycin] + CC1=C\[C@@H](O)CC(=O)Cc2nc(co2)C(=O)N2CCC=C2C(=O)O[C@H](C(C)C)[C@H](C)/C=C/C(=O)NC\C=C\1 [Virginiamycin M1] | -0.037 | -0.0239 | -0.0314 | -0.0529 |
| CC[C@H]1OC(=O)[C@H](C)C(=O)[C@H](C)[C@@H](O[C@@H]2O[C@H](C)C[C@H](N(C)C)[C@H]2O)[C@](C)(OC)C[C@@H](C)C(=O)[C@H](C)[C@H]2N(CCCCn3cnc(-c4cccnc4)c3)C(=O)O[C@]12C [Telithromycin] + CN(C)c1cc(NC(=O)CNC(C)(C)C)c(O)c2c1C[C@H]1C[C@H]3[C@H](N(C)C)C(O)=C(C(N)=O)C(=O)[C@@]3(O)C(O)=C1C2=O [Tigecycline] | -0.107 | 0.0616 | 0.0378 | -0.0261 |
| CC[C@H]1OC(=O)[C@H](C)C(=O)[C@H](C)[C@@H](O[C@@H]2O[C@H](C)C[C@H](N(C)C)[C@H]2O)[C@](C)(OC)C[C@@H](C)C(=O)[C@H](C)[C@H]2N(CCCCn3cnc(-c4cccnc4)c3)C(=O)O[C@]12C [Telithromycin] + CN[C@H](CC(C)C)C(=O)N[C@H]1C(=O)N[C@@H](CC(N)=O)C(=O)N[C@H]2C(=O)N[C@H]3C(=O)N[C@H](C(=O)N[C@H](C(=O)O)c4cc(O)cc(O)c4-c4cc3ccc4O)[C@H](O)c3ccc(c(Cl)c3)Oc3cc2cc(c3O[C@@H]2O[C@H](CO)[C@@H](O)[C@H](O)[C@H]2O[C@H]2C[C@](C)(N)[C@H](O)[C@H](C)O2)Oc2ccc(cc2Cl)[C@H]1O [Vancomycin] | 0.0519 | 0.0487 | 0.0259 | -0.0478 |
| CC[C@H]1OC(=O)[C@H](C)C(=O)[C@H](C)[C@@H](O[C@@H]2O[C@H](C)C[C@H](N(C)C)[C@H]2O)[C@](C)(OC)C[C@@H](C)C(=O)[C@H](C)[C@H]2N(CCCCn3cnc(-c4cccnc4)c3)C(=O)O[C@]12C [Telithromycin] + COc1cc(Cc2cnc(N)nc2N)cc(OC)c1OC [Trimethoprim] | 0.0323 | -0.243 | 0.0595 | 0.0276 |
| CC[C@H]1OC(=O)[C@H](C)C(=O)[C@H](C)[C@@H](O[C@@H]2O[C@H](C)C[C@H](N(C)C)[C@H]2O)[C@](C)(OC)C[C@@H](C)C(=O)[C@H](C)[C@H]2N(CCCCn3cnc(-c4cccnc4)c3)C(=O)O[C@]12C [Telithromycin] + Oc1cc(Cl)ccc1Oc1ccc(Cl)cc1Cl [Triclosan] | 0.0532 | 0.017 | 0.0266 | -0.0253 |
| Oc1cc(Cl)ccc1Oc1ccc(Cl)cc1Cl [Triclosan] + CC1=C\[C@@H](O)CC(=O)Cc2nc(co2)C(=O)N2CCC=C2C(=O)O[C@H](C(C)C)[C@H](C)/C=C/C(=O)NC\C=C\1 [Virginiamycin M1] | 0.0386 | 0.0973 | 0.034 | 0.108 |
| Oc1cc(Cl)ccc1Oc1ccc(Cl)cc1Cl [Triclosan] + CN[C@H](CC(C)C)C(=O)N[C@H]1C(=O)N[C@@H](CC(N)=O)C(=O)N[C@H]2C(=O)N[C@H]3C(=O)N[C@H](C(=O)N[C@H](C(=O)O)c4cc(O)cc(O)c4-c4cc3ccc4O)[C@H](O)c3ccc(c(Cl)c3)Oc3cc2cc(c3O[C@@H]2O[C@H](CO)[C@@H](O)[C@H](O)[C@H]2O[C@H]2C[C@](C)(N)[C@H](O)[C@H](C)O2)Oc2ccc(cc2Cl)[C@H]1O [Vancomycin] | 0.0833 | 0.0377 | 0.0453 | 0.0768 |
| Oc1cc(Cl)ccc1Oc1ccc(Cl)cc1Cl [Triclosan] + COc1cc(Cc2cnc(N)nc2N)cc(OC)c1OC [Trimethoprim] | 0.113 | 0.13 | 0.0267 | -0.0451 |
